# Assay results: patent US11234971B2, “Methods of treating cancer comprising administration of a glucocorticoid receptor modulator and a cancer chemotherapy agent” (Corcept Therapeutics Incorporated, priority 2018, dated 2022)
# Columns and labels:
# [1] = system: advanced or metastatic solid tumors; experiment: Tumor assessments per RECIST 1.1 in study NCT02762981; format: in vivo, human; conditions: of 21 patients with paired samples; relacorilant plus nab-paclitaxel
# Method: In the following, reference is made to RECIST and RECIST 1.1, which refer to the Response Evaluation Criteria for Solid Tumors. These criteria, first promulgated in 2000, and updated in 2009 (as RECIST 1.1.), are generally accepted, and nearly universally used criteria for clinical trials of therapies for solid tumors. See, e.g., Schwartz et al., Eur J Cancer. July; 62: 132-137 (2016). The study described in this Example was performed and evaluated according to these criteria. Detection of the ovarian cancer marker CA-125 was also used, per Gynecologic Cancer Intergroup (GCIG) criteria, in evaluating the patient samples.
# Patients Patients with solid tumors were enrolled in study NCT02762981, a phase 1/2 study of CORT125134 (aka relacorilant) in combination with nab-paclitaxel. The patients were all 18 years of age or older, with advanced or metastatic solid tumors who have disease progression; all patients gave informed consent to participate in this study.
# Patients received one or more cycles of treatments as describe schematically in FIGS. 1 and 2. The treatment schedules of each 28-day cycle are shown in those figures. Patients in Segment I of the study received continuous dosing of relacorilant (“CORT125134”); that is, relacorilant was administered to the patients on a daily basis. […]
# progesterone receptor = progesterone receptor (Homo sapiens, UniProt P06401); conditions: cited from earlier work
# progesterone receptor, sequence (P06401 whole entry, species assumed): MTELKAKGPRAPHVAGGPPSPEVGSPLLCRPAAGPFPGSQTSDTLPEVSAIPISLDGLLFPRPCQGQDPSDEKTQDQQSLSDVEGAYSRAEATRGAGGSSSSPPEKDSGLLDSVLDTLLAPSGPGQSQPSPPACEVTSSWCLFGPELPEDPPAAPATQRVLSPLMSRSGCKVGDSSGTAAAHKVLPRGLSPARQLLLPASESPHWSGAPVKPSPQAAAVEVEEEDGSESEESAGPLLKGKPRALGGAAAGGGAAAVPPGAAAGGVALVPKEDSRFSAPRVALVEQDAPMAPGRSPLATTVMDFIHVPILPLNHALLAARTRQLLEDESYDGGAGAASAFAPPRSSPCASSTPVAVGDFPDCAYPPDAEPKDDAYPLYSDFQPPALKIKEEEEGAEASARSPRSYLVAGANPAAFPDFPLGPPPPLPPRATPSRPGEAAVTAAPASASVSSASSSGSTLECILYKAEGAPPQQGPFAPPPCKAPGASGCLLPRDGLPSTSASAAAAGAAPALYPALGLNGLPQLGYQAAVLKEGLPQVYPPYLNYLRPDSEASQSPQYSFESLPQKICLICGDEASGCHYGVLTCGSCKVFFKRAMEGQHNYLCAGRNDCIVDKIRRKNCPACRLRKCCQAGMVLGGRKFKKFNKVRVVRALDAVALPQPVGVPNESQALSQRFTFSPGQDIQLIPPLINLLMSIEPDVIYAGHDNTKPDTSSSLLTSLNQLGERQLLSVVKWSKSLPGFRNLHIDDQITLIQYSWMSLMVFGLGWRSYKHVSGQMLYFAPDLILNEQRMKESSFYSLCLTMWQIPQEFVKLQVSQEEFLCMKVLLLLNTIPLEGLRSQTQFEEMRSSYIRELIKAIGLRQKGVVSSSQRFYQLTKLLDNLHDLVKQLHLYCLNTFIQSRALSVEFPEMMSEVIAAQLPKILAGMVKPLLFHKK
# androgen receptor = androgen receptor (Homo sapiens, UniProt P10275); conditions: cited from earlier work
# androgen receptor, sequence (P10275 whole entry, species assumed): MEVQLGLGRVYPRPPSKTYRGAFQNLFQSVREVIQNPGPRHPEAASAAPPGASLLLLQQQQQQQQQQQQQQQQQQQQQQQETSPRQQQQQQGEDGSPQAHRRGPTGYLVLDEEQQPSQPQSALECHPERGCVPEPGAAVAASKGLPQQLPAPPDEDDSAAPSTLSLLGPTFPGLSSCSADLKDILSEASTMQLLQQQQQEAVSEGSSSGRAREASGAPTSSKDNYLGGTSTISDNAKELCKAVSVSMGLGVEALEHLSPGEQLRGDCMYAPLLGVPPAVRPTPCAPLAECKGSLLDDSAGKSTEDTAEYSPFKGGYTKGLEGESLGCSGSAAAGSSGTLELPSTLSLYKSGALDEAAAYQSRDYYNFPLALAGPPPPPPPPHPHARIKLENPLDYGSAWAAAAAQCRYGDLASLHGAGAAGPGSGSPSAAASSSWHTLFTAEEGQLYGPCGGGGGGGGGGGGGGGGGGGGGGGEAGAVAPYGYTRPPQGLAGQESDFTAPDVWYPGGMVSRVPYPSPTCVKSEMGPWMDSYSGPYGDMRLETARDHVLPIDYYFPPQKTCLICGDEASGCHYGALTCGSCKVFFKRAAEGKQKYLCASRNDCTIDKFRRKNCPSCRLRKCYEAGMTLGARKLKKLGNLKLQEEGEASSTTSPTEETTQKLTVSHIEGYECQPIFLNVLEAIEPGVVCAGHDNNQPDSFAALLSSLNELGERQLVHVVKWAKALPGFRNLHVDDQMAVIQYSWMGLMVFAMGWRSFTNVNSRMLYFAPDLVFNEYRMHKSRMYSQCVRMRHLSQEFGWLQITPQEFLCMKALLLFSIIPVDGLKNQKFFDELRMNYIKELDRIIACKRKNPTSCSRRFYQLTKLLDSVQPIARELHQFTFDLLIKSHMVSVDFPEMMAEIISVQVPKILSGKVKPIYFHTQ
# [2] = system: OVCAR-5 human ovarian cancer cells; experiment: OVCAR-5 cell growth (Cell Titer-Glo) with chemotherapy agents with or without dexamethasone and relacorilant; format: cell-based
# Method: The initial cell density was chosen to be low enough to allow for several population doublings (typically 3 to 5) during the indicated incubation period. […] After 48 hours of incubation, serially diluted test agents in growth medium were added to each well. After 72 hours of culture, the plated cells and Cell Titer-Glo® (Promega G7571) reagents were brought to room temperature to equilibrate for 30 minutes. 200 μL of Cell Titer-Glo® reagent was then added to each well, the plate was shaken for two minutes, and then left to equilibrate for ten minutes. The Cell Titer-Glo® cell viability assay uses ATP levels to determine cell numbers. After this equilibration, luminescence was read on the Biotech Synergy II microplate reader. The percent control (% C) of cell growth for each test concentration was calculated relative to untreated wells. All tests were performed in quadruplicate. Individual assay plates were evaluated for appropriate signal and well-to-well variance in the control wells for quality control.
# glucocorticoid receptor = biological target: T1, glucocorticoid receptor (Homo sapiens, UniProt P04150); conditions: cited from earlier work
# T1 sequence (P04150 1-777): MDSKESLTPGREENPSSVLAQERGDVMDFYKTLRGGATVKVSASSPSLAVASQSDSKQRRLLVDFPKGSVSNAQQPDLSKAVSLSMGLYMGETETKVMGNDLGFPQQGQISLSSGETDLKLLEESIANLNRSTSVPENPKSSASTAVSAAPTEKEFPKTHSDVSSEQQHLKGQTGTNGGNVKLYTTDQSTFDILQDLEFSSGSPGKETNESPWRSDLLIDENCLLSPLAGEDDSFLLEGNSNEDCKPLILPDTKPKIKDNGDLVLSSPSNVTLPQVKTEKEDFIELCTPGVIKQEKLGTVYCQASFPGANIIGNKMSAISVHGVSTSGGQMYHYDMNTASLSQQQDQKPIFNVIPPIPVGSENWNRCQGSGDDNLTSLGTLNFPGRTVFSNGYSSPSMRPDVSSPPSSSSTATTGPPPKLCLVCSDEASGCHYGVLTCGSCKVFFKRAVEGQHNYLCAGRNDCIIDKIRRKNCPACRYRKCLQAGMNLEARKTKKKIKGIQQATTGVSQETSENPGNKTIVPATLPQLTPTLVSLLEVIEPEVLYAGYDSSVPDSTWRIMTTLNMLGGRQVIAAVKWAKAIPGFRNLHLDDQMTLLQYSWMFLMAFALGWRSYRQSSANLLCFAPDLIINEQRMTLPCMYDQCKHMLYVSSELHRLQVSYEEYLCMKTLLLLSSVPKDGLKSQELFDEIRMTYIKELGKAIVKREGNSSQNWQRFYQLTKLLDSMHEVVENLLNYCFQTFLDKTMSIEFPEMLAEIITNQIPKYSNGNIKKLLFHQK
# [3] = OVCAR-5, glucocorticoid 100 nM dexamethasone, relacorilant in the presence of the glucocorticoid
smiles,measurement,setting,value
"Cn1cc(S(=O)(=O)N2CCC3=Cc4c(cnn4-c4ccc(F)cc4)C[C@]3(C(=O)c3cc(C(F)(F)F)ccn3)C2)cn1 [relacorilant, (R)-(1-(4-fluorophenyl)-6-((1-methyl-1H-pyrazol-4-yl)sulfonyl)-4,4a,5,6,7,8-hexahydro-1H-pyrazolo[3,4-g]isoquinolin-4a-yl)(4-(trifluoromethyl)pyridin-2-yl)methanone]","patients who experienced benefit from therapy (SD, PR or CR)",[1],11 patients
same,patients who experienced progressive disease,[1],10 patients
same,Ki,progesterone receptor,> 10 µM
same,Ki,androgen receptor,> 10 µM
same,cell numbers (luminosity) in the presence of bortezumib and palbociclib,"[2]; OVCAR-5, bortezumib 500 μM, palbociclib 100 μM, 100 nM dexamethasone, 300 nM relacorilant",opposed
same,maximal toxicity at high chemotherapy concentrations,"[2]; OVCAR-5, dexamethasone, relacorilant + dexamethasone",reversed this
same,half-maximal potency of / sensitivity to oxaliplatin,[2]; [3],restored sensitivity to oxaliplatin
same,maximum effect of / sensitivity to gemcitabine,[2]; [3],restored sensitivity to gemcitabine
same,maximum effect of / sensitivity to paclitaxel,[2]; [3],restored sensitivity to paclitaxel
same,effects of dexamethasone on response to chemotherapeutic agents,"[2]; OVCAR-5, several chemotherapeutic agents",reversed the effects of dexamethasone in all cases
same,potency of carboplatin,"[2]; OVCAR-5 grown with 100 nM dexamethasone, carboplatin titrated against increasing amounts of relacorilant",dose-dependently increased
same,binding to the glucocorticoid receptor,glucocorticoid receptor,potently binds
